# Data published in PMC6225212, “Synthesis and Pharmacological Evaluation of Novel Silodosin-Based Arylsulfonamide Derivatives as α1A/α1D-Adrenergic Receptor Antagonist with Potential Uroselective Profile” (Molecules : A Journal of Synthetic Chemistry and Natural …, 2018).
# Entries after “also recorded” stand apart in the source; their conditions may differ.
# Assays:
# α1B-ARs = target: T1, α1B-ARs (Homo sapiens, UniProt P35368); experiment: Intrinsic activity at α1B-ARs, aequorin calcium mobilization luminescence; type: cell-based; set-up: key to α1B Profile: ANT—antagonist; AGO—agonist; settings: for IC50: antagonist mode, three independent experiments; for α1B Profile: functional profile
# T1 sequence (P35368 1-520): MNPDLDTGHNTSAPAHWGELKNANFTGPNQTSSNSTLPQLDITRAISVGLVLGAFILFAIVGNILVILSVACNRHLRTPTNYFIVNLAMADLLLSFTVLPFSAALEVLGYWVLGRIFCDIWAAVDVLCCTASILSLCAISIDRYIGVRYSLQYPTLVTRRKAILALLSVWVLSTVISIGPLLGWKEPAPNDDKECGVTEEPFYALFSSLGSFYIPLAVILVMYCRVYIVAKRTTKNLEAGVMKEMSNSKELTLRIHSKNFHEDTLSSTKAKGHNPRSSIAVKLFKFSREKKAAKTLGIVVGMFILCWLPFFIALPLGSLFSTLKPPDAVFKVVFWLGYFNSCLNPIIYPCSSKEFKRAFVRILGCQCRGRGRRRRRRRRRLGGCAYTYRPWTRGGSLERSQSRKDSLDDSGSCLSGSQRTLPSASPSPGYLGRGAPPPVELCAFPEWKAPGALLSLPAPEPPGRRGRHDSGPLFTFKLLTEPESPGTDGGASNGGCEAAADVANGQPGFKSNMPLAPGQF
# Description: The intrinsic activity at α1A-ARs of the selected compounds was assessed by fluorescence detection (Invitrogen, Thermo Fisher Scientific, Carlsbad, CA, USA) of β-lactamase reporter genes using a FRET-enabled substrate. The intrinsic activity at α1B-ARs and α1D-ARs was determined by luminescence detection (PerkinElmer, Zaventem, Belgium) of calcium mobilization using the recombinant-expressed jellyfish photoprotein (Aequorin).
# Intrinsic activity assay to α1B- and α1D-ARs was performed according to the manufacturer of the ready-to-use cells with stable expression of the α1B-adrenoreceptors and α1D-adrenoreceptors, respectively (PerkinElmer, Zaventem, Belgium). For measurement, cells (frozen, ready to use) were thawed and resuspended in 10 mL of assay buffer containing 5 µM coelenterazine h. This cells suspension was put in a 10 mL Falcon tube, fixed onto a rotating heel, and incubated for overnight at rt in the dark (8 rpm; 45° angle). Cells were diluted with Assay Buffer to 5000 cells/20 µL. Agonistic ligands 2 × (50 µL/well), diluted in Assay Buffer, were prepared in ½ white polystyrene area plates, and the cell suspension was dispensed in 50 µL volume on the ligands using the injector. The light emitted was recorded for 20 s. Cells with antagonist were incubated for 15 min at room temperature. Thereafter, 50 µL of agonist (3 × EC80 final concentration) was injected into the mix of cells and antagonist and the light emitted was recorded for 20 s.
# [1] = In vitro metabolic stability in rat-liver microsomes (RLM); type: in vitro ADME; settings: for Major Metabolic Pathway: RLM; for microsomal CLint at 10 μM / half-life at 10 μM: male, rat, rat liver microsomes, pH 7.4, RLM 0.2 mg/mL, compound 10 μM, 37 °C; for half-life at 10 μM: read-out: t½
# Description: In vitro biotransformation assays of selected compounds 9 and 10 were performed using rat-liver microsomes (RLM), potassium-phosphate buffer, NADPH-regenerating system (NADP, glucose-6-phosphate, glucose-6-phosphate dehydrogenase), and levallorphan as internal standard, according to the previously published procedure. Compound I and the drug tamsulosin were used as reference standard. UPLC/MS analysis (Waters Corporation, Milford, MA, USA) was performed to determine the quantity of the starting material left in solution. The in vitro half-time (t1/2) for test compounds was determined from the slope of the linear regression of ln % parent compound remaining versus incubation time. The calculated t1/2 was incorporated into the following equation to obtain intrinsic clearance: (Clint) = (volume of incubation [µL]/protein in the incubation [mg]) × 0.693/t1/2.
# Metabolic stability of tested compound was analyzed using incubation systems, composed of: tested compounds (10 μM), RLMs (microsomes from rat male liver, pooled; 0.2 mg/mL; Sigma Aldrich), NADPH-regenerating system (NADP+, glucose-6-phosphate and glucose-6-phosphate dehydrogenase in 100mM potassium buffer, pH 7.4; all from Sigma Aldrich), and potassium buffer, pH 7.4. […] Firstly, all samples contained incubation mixture (without NADPH-regenerating system) were preincubated in a thermoblock at 37 °C for 10 min. Then reaction was initiated by the addition of NADPH-regenerating system. In control samples NADPH-regenerating system was replaced with potassium buffer. Probes were incubated in thermoblock for 15 and 30 min at 37 °C. After addition of internal standard (levallorphan, 10 μM), the biotransformation process was stopped by addition of perchloric acid (69–72%, by volume). Next, samples were centrifuged (Centrifuge 5427 R, Eppendorf, Hamburg, Germany) and supernatants were analyzed using UPLC/MS (Waters Corporation). All experiments were run in duplicates. Half-life time was evaluated using a nonlinear regression model using Graph Pad Prism software (Graph Pad Software, La Jolla, San Diego, CA, USA) and intrinsic clearance was calculated from the equation Clint = (volume of incubation [μL]/protein in the incubation [mg]) ×∙0.693/t1/2 [33].
# [2] = system: normotensive anaesthetized rats; experiment: Effect on blood pressure after single i.v. administration in normotensive anaesthetized rats; type: in vivo, rat; settings: 2 mg/kg i.v.
# Description: The experiments were performed to our previously reported method.
# Identified compounds 9 and 10 with favorable α1B/α1D profile and acceptable metabolic stability were selected for in vivo tests to evaluate their influence on blood pressure. Hypotensive activity was determined after one time i.v. administration to normotensive anaesthetized rats at single doses of 2 mg/kg according to our previously reported method.
# The experiments were carried out on male Wistar rats (body weight 200–250 g). The animals were housed in pairs in plastic cages in constant-temperature facilities exposed to a 12:12 h light/dark cycle; water and food were available ad libitum. Experimental groups consisted of 6 animals each. All experiments were conducted in accordance with the NIH Guide for Care and Use of Laboratory Animals and were approved by the Animal Use and Care Committee of the Jagiellonian University (2012, Kraków, Poland).
# The normotensive rats were anesthetized with thiopental (70 mg/kg) by i.p. injection. The left carotid artery was cannulated with polyethylene tubing filled with heparin solution in saline to facilitate pressure measurements using PowerLab Apparatus (ADInstruments, Sydney, Australia). Blood pressure was measured: before administration of the compounds—time 0 min (control pressure), and 60 min thereafter. For each compound, studies were performed in the dose of 2 mg/kg b.w. Compounds were dissolved in water and administered intravenously. Initial blood pressure before administration of the tested compounds in all groups was similar.
# Statistical calculations were carried out with the GraphPadPrism 6 program (GraphPad Software). Results are given as the arithmetic means with standard deviation (SD). The statistical significance was calculated using a one-way ANOVA and posthoc Bonfferoni Test in comparison to 0.9% NaCl. Differences were considered statistically significant at: * p ≤ 0.05, ** p ≤ 0.01, *** p ≤ 0.001.
Structure (SMILES),IC50 (α1B-ARs) [nM],α1B Profile (α1B-ARs),Major Metabolic Pathway [1],microsomal CLint at 10 μM [1] [µL/min/mg],half-life at 10 μM [1] [min],"effect on blood pressure, in words (significance vs 0.9% NaCl) [2]",decrease of DBP ([2]; over 60 min)
"O=S(=O)(NCC1CCN(CCOc2ccccc2OCC(F)(F)F)CC1)c1cccc(Cl)c1F [Compound 9, 3-Chloro-2-fluoro-N-[(1-{2-[(2,2,2-trifluoroethoxy)phenoxy]ethyl}piperidin-4-yl)methyl]benzenesulfonamide]",3.9,ANT,N-dealkylation,67,51.5,did not decrease systolic and diastolic blood pressure; also recorded: insignificantly,–
"O=S(=O)(NCC1CCN(CCOc2ccccc2OCC(F)(F)F)CC1)c1cc(Cl)ccc1F [Compound 10, 5-Chloro-2-fluoro-N-[(1-{2-[(2,2,2-trifluoroethoxy)phenoxy]ethyl}piperidin-4-yl)methyl]benzenesulfonamide]",10.1,ANT,N-dealkylation,91.7,37.8,statistically significant drop in systolic blood pressure was observed from 30 min after administration,–
"CCOc1ccccc1OCCN[C@H](C)Cc1ccc(OC)c(S(N)(=O)=O)c1 [tamsulosin, reference compound]",1.3,ANT,N-dealkylation,41,83,significantly through whole period of observation,13.3–16.6 mmHg
